{"source": "ChEMBL document CHEMBL1126704", "about": "“Dibenzoxepin derivatives: thromboxane A2 synthase inhibition and thromboxane A2 receptor antagonism combined in one molecule” (J Med Chem, 1993)", "key": {"[1]": {"assay": "Tested for specific binding of radioligand [3H]U-46619 to thromboxane A2/prostaglandin H2 receptor in guinea pig washed platelets", "set-up": "species or system Cavia porcellus"}, "[2]": {"assay": "Tested for specific binding of radioligand [3H]U-46619 to thromboxane A2 /prostaglandin H2 receptor in guinea pig washed platelets", "set-up": "species or system Cavia porcellus"}, "Rattus norvegicus [3]": {"system": "Rattus norvegicus", "assay": "Tested for the effect at 30 mg/kg through peroral route on rat serum creatinine, 24 hr after reperfusion; (p<0.05)", "format": "functional, organism-based", "set-up": "dose 30 mg/kg"}, "Rattus norvegicus [4]": {"system": "Rattus norvegicus", "assay": "Tested for the effect at 30 mg/kg through peroral route on rat serum creatinine, 48 hr after reperfusion", "format": "functional, organism-based", "set-up": "dose 30 mg/kg"}, "Rattus norvegicus [5]": {"system": "Rattus norvegicus", "assay": "Tested for the effect at 30 mg/kg through peroral route on rat blood urea nitrogen, 48 hr after reperfusion; (p<0.05)", "format": "functional", "conditions": "route oral"}, "Homo sapiens": {"species_on_record": "Homo sapiens", "assay": "In vitro inhibition of U-46619 (3 uM) -induced human platelet aggregation", "format": "functional"}, "Rattus norvegicus [6]": {"system": "Rattus norvegicus", "assay": "Tested for the effect at 30 mg/kg through peroral route on rat blood urea nitrogen, 24 hr after reperfusion; (p<0.01)", "format": "functional", "conditions": "route oral"}, "Cavia porcellus [7]": {"species_on_record": "Cavia porcellus", "assay": "Tested for inhibition against thromboxane A2/prostaglandin H2 receptor in guinea pig washed platelets using radioligand [3H]U-46619 at 100 uM"}, "[8]": {"system": "Thromboxane-A synthase (Bos taurus)", "assay": "Tested against TXA2 synthase in bovine platelet microsome at 10 uM"}, "Cavia porcellus [9]": {"species_on_record": "Cavia porcellus", "assay": "Tested for inhibition against thromboxane A2/prostaglandin H2 receptor in guinea pig washed platelets using radioligand [3H]U-46619 at 1 uM"}}, "data": [{"smiles": "O=C(O)c1ccc2c(c1)/C(=C/Cn1ccnc1)c1ccccc1CO2", "values": [{"measurement": "Ki", "setting": "[1]", "value": 600, "unit": "nM"}]}, {"smiles": "O=C(O)c1ccc2c(c1)/C(=C\\Cn1ccnc1)c1ccccc1CO2", "values": [{"measurement": "Ki", "setting": "[1]", "value": 4500, "unit": "nM"}]}, {"smiles": "O=C(O)c1ccc2c(c1)/C(=N\\Cc1cccnc1)c1ccccc1CO2", "values": [{"measurement": "Ki", "setting": "[2]", "value": 120, "unit": "nM"}]}, {"smiles": "O=C(O)c1ccc2c(c1)/C(=C\\Cc1cccnc1)c1ccccc1CO2", "values": [{"measurement": "Serum creatinine", "setting": "Rattus norvegicus [3]", "value": 1.48}, {"measurement": "Serum creatinine", "setting": "Rattus norvegicus [4]", "value": 1.16}, {"measurement": "Blood urea nitrogen", "setting": "Rattus norvegicus [5]", "value": 30.37}, {"measurement": "IC50", "setting": "Homo sapiens", "value": 9600, "unit": "nM"}, {"measurement": "Blood urea nitrogen", "setting": "Rattus norvegicus [6]", "value": 34.18}, {"measurement": "Ki", "setting": "[1]", "value": 180, "unit": "nM"}]}, {"smiles": "C/C(=C\\c1ccc(Cc2cccnc2)cc1)C(=O)O", "values": [{"measurement": "inhibition", "setting": "Cavia porcellus [7]", "value": 14, "unit": "%"}]}, {"smiles": "O=C(O)c1ccc2c(c1)C(SCc1ccccc1)c1ccccc1CO2", "note": "(racemic)", "values": [{"measurement": "inhibition", "setting": "[8]", "value": 19, "unit": "%"}, {"measurement": "Ki", "setting": "[1]", "value": 40, "unit": "nM"}]}, {"smiles": "O=C(O)c1ccc2c(c1)C(SCc1cccnc1)c1ccccc1CO2", "note": "(racemic)", "values": [{"measurement": "Ki", "setting": "[1]", "value": 250, "unit": "nM"}]}, {"smiles": "O=C(O)c1ccc2c(c1)C(NCc1ccccc1)c1ccccc1CO2", "note": "(racemic)", "values": [{"measurement": "inhibition", "setting": "Cavia porcellus [9]", "value": 6, "unit": "%"}, {"measurement": "inhibition", "setting": "[8]", "value": -4, "unit": "%"}]}, {"smiles": "O=C(O)c1ccc2c(c1)C(NCc1cccnc1)c1ccccc1CO2", "note": "(racemic)", "values": [{"measurement": "inhibition", "setting": "Cavia porcellus [9]", "value": 12, "unit": "%"}]}, {"smiles": "O=C(O)c1ccc2c(c1)C(SCc1cccnc1)c1ccccc1CO2", "note": "(single isomer, unassigned; (+))", "values": [{"measurement": "Ki", "setting": "[1]", "value": 8200, "unit": "nM"}]}, {"smiles": "O=C(O)c1ccc2c(c1)C(SCc1cccnc1)c1ccccc1CO2", "note": "(stereo in doubt; (-)-3)", "values": [{"measurement": "Ki", "setting": "[1]", "value": 85, "unit": "nM"}]}, {"smiles": "O=C(O)CCCC/C=C(\\c1ccccc1)c1cccnc1", "note": "[(E)-ISBOGREL]", "values": [{"measurement": "Serum creatinine", "setting": "Rattus norvegicus [3]", "value": 2.07}, {"measurement": "Serum creatinine", "setting": "Rattus norvegicus [4]", "value": 2.02}, {"measurement": "Ki", "setting": "[2]", "value": 2700, "unit": "nM"}, {"measurement": "Blood urea nitrogen", "setting": "Rattus norvegicus [5]", "value": 48.38}, {"measurement": "IC50", "setting": "Homo sapiens", "value": 280000, "unit": "nM"}, {"measurement": "Blood urea nitrogen", "setting": "Rattus norvegicus [6]", "value": 58.07}]}]}
